Test results: ChEMBL document CHEMBL4507311, “Data for DCP probe A-1155463” (2021)

What was measured:
Details in all cases: Compound concentration 1000.0 nM
[1] = target: Non-receptor tyrosine-protein kinase TNK1 (Homo sapiens) (UniProt Q13470)
[2] = system: Leucine-rich repeat serine/threonine-protein kinase 2 (Homo sapiens), Q5S007 [G2019S]
[3] = target: Mitogen-activated protein kinase 10 (Homo sapiens) (UniProt P53779)
[4] = target: Homeodomain-interacting protein kinase 4 (Homo sapiens) (UniProt Q8NE63)
[5] = target: Mitogen-activated protein kinase kinase kinase 20 (Homo sapiens) (UniProt Q9NYL2)
[6] = target: Serine/threonine-protein kinase Nek4 (Homo sapiens) (UniProt P51957)
[7] = target: Ribosomal protein S6 kinase alpha-6 (Homo sapiens) (UniProt Q9UK32)
[8] = target: Serine/threonine-protein kinase SBK1 (Homo sapiens) (UniProt Q52WX2)
[9] = target: Receptor tyrosine-protein kinase erbB-2 (Homo sapiens) (UniProt P04626)
[10] = target: Calcium/calmodulin-dependent protein kinase kinase 2 (Homo sapiens) (UniProt Q96RR4)
[11] = target: Vascular endothelial growth factor receptor 1 (Homo sapiens) (UniProt P17948)
[12] = target: Mast/stem cell growth factor receptor Kit (Homo sapiens) (UniProt P10721)
[13] = system: Phosphatidylinositol 4,5-bisphosphate 3-kinase catalytic subunit alpha isoform (Homo sapiens), P42336 [H1047Y]
[14] = target: Serine/threonine-protein kinase TBK1 (Homo sapiens) (UniProt Q9UHD2)
[15] = target: Hormonally up-regulated neu tumor-associated kinase (Homo sapiens) (UniProt P57058)
[16] = target: Mitogen-activated protein kinase kinase kinase 15 (Homo sapiens) (UniProt Q6ZN16)
[17] = target: RAC-beta serine/threonine-protein kinase (Homo sapiens) (UniProt P31751)
[18] = target: 3-phosphoinositide-dependent protein kinase 1 (Homo sapiens) (UniProt O15530)
[19] = target: RAF proto-oncogene serine/threonine-protein kinase (Homo sapiens) (UniProt P04049)
[20] = target: Glycogen synthase kinase-3 alpha (Homo sapiens) (UniProt P49840)
[21] = target: Mitogen-activated protein kinase 14 (Homo sapiens) (UniProt Q16539)
[22] = system: Epidermal growth factor receptor (Homo sapiens), P00533 [G719C]
[23] = target: TGF-beta receptor type-2 (Homo sapiens) (UniProt P37173)
[24] = target: Cyclin-dependent kinase-like 2 (Homo sapiens) (UniProt Q92772)
[25] = target: Phosphorylase b kinase regulatory subunit alpha, liver isoform (Homo sapiens) (UniProt P46019)
[26] = target: Tyrosine-protein kinase ITK/TSK (Homo sapiens) (UniProt Q08881)
[27] = target: Membrane-associated tyrosine- and threonine-specific cdc2-inhibitory kinase (Homo sapiens) (UniProt Q99640)
[28] = system: Epidermal growth factor receptor (Homo sapiens), P00533 [UNDEFINED MUTATION]
[29] = target: Serine/threonine-protein kinase STK11 (Homo sapiens) (UniProt Q15831)
[30] = target: Protein kinase C iota type (Homo sapiens) (UniProt P41743)
[31] = target: Serine/threonine-protein kinase NLK (Homo sapiens) (UniProt Q9UBE8)
[32] = system: Phosphatidylinositol 4,5-bisphosphate 3-kinase catalytic subunit alpha isoform (Homo sapiens), P42336 [Q546K]
[33] = system: Tyrosine-protein kinase ABL1 (Homo sapiens), P00519 [Q252H]
[34] = target: Serine/threonine-protein kinase WNK2 (Homo sapiens) (UniProt Q9Y3S1)
[35] = target: Phosphatidylinositol 4,5-bisphosphate 3-kinase catalytic subunit beta isoform (Homo sapiens) (UniProt P42338)
[36] = target: Phosphorylase b kinase gamma catalytic chain, skeletal muscle/heart isoform (Homo sapiens) (UniProt Q16816)
[37] = target: Serine/threonine-protein kinase ICK (Homo sapiens) (UniProt Q9UPZ9)
[38] = target: Non-receptor tyrosine-protein kinase TYK2 (Homo sapiens) (UniProt P29597)
[39] = system: Tyrosine-protein kinase ABL1 (Homo sapiens), P00519 [T315I]
[40] = target: Mitogen-activated protein kinase 12 (Homo sapiens) (UniProt P53778)
[41] = system: Epidermal growth factor receptor (Homo sapiens), P00533 [UNDEFINED MUTATION]; remark: listed apart in the source
[42] = system: Proto-oncogene tyrosine-protein kinase receptor Ret (Homo sapiens), P07949 [V804L]
[43] = target: High affinity nerve growth factor receptor (Homo sapiens) (UniProt P04629)
[44] = target: Serine/threonine-protein kinase PLK1 (Homo sapiens) (UniProt P53350)

Measured: residual activity

Sequence of Serine/threonine-protein kinase TBK1 (Homo sapiens) (Q9UHD2 whole entry): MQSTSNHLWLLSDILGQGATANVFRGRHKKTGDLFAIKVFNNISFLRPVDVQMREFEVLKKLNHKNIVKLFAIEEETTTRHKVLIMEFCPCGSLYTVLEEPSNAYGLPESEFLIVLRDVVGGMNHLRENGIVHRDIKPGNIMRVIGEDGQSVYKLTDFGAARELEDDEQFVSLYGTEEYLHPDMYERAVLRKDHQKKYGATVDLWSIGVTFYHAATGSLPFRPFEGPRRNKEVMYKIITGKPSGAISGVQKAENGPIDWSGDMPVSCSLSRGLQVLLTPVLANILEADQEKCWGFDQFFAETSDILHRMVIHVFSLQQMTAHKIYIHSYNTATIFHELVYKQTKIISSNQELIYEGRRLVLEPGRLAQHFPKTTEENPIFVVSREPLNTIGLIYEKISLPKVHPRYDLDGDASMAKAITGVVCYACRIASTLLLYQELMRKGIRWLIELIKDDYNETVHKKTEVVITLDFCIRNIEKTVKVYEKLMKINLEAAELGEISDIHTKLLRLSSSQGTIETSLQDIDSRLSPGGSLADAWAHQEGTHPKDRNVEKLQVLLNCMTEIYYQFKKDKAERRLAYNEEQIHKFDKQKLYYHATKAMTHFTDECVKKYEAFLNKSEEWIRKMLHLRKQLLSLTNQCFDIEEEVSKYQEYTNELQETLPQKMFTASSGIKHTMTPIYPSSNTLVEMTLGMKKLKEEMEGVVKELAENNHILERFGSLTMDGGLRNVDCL
Sequence of Cyclin-dependent kinase-like 2 (Homo sapiens) (Q92772 whole entry, canonical isoform): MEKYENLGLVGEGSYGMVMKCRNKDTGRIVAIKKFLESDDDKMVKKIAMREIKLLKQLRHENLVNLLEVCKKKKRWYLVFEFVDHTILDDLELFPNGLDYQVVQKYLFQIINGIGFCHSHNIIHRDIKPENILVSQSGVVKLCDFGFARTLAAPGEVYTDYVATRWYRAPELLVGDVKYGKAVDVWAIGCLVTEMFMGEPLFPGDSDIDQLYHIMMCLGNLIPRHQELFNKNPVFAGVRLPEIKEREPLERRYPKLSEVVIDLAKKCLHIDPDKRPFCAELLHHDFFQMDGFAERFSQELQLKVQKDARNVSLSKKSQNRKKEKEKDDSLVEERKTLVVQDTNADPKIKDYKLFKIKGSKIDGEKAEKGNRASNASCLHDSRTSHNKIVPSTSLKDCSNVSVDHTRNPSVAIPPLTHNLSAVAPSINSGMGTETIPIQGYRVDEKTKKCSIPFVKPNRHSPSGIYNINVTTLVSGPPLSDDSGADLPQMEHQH
Sequence of TGF-beta receptor type-2 (Homo sapiens) (P37173 whole entry): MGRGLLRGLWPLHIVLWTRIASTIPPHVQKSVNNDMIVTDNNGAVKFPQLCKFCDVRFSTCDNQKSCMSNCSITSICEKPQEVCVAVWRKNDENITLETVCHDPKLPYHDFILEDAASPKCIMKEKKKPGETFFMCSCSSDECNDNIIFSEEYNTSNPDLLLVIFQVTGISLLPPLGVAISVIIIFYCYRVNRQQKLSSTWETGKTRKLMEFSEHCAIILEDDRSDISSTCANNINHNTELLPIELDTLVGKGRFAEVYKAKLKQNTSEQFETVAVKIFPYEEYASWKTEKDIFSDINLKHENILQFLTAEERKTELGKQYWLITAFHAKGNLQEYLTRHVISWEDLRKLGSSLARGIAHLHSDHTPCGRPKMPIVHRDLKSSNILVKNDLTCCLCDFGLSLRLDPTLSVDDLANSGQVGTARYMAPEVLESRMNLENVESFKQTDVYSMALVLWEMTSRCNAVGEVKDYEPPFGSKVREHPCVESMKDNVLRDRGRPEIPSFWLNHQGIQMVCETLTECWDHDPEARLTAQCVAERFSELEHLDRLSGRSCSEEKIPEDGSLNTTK
Sequence of Mitogen-activated protein kinase 14 (Homo sapiens) (Q16539 whole entry): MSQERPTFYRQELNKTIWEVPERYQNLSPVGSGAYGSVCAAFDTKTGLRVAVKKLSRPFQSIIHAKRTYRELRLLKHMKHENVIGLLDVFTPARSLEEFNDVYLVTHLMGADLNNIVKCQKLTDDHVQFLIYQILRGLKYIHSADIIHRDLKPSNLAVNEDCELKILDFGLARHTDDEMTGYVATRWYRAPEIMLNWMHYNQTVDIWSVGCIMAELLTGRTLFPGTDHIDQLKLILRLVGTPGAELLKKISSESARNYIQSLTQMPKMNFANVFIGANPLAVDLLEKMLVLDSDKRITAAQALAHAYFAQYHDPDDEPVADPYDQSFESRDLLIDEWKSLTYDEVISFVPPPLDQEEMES
Sequence of Serine/threonine-protein kinase SBK1 (Homo sapiens) (Q52WX2 whole entry): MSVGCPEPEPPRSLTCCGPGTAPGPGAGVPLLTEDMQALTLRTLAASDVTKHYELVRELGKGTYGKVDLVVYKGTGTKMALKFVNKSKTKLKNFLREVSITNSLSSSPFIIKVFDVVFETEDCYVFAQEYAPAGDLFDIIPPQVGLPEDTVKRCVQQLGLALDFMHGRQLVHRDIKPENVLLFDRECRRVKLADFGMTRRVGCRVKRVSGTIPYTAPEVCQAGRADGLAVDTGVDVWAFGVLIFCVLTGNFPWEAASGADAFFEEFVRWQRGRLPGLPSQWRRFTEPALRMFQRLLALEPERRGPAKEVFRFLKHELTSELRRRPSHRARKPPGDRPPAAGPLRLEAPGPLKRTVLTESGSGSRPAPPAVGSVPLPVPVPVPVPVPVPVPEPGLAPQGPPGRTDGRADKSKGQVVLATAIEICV
Sequence of Serine/threonine-protein kinase ICK (Homo sapiens) (Q9UPZ9 whole entry): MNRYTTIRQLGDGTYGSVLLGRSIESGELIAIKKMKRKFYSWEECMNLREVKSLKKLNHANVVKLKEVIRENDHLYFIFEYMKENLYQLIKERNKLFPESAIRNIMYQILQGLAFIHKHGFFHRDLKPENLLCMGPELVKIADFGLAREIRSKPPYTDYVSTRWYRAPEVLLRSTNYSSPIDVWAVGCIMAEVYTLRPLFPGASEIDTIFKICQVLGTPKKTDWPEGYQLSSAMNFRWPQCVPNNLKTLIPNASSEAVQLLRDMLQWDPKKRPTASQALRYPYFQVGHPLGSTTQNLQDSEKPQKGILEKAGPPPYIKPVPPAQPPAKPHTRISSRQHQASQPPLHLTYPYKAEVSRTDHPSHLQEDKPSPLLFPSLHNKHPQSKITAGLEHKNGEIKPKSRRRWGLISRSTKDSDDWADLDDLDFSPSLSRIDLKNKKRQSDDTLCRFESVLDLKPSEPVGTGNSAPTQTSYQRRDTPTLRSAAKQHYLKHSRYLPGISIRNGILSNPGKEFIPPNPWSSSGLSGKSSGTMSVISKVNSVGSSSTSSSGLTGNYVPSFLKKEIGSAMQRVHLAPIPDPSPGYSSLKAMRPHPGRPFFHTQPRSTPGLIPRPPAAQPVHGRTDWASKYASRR
Sequence of Hormonally up-regulated neu tumor-associated kinase (Homo sapiens) (P57058 whole entry): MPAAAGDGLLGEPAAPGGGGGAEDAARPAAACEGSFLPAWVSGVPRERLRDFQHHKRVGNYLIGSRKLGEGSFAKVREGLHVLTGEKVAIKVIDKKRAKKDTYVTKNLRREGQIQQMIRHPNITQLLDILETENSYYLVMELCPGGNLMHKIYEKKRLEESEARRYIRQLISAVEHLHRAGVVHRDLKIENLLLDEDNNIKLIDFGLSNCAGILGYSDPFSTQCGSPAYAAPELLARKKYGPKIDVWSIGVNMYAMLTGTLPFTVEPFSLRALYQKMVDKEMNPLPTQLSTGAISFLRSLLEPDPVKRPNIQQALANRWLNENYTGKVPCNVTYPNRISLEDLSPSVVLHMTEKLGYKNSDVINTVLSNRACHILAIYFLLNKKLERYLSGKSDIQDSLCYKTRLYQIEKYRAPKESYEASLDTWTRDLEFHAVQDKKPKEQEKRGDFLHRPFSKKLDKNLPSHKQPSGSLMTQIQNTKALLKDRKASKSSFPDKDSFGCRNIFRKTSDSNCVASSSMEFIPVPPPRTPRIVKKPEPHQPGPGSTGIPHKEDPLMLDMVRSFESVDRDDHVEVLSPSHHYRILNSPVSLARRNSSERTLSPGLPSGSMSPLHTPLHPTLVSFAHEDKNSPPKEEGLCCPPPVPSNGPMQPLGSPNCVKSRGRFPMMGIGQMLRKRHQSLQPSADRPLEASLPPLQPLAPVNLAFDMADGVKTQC
Sequence of 3-phosphoinositide-dependent protein kinase 1 (Homo sapiens) (O15530 whole entry): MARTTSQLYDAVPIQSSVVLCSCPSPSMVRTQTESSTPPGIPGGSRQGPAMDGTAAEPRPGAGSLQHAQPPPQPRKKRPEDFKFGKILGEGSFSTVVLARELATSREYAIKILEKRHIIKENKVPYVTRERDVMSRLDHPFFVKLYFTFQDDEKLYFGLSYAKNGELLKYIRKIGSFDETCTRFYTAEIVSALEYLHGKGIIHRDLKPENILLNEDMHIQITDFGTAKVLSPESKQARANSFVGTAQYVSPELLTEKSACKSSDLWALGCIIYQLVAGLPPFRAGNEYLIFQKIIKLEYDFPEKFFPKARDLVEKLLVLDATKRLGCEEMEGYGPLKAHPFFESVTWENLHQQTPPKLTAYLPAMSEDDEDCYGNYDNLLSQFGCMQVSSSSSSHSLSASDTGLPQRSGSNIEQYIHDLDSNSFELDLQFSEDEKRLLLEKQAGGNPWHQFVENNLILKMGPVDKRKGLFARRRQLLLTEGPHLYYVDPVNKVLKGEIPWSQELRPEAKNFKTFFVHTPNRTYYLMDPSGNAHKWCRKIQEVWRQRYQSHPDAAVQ
Sequence of Phosphorylase b kinase gamma catalytic chain, skeletal muscle/heart isoform (Homo sapiens) (Q16816 whole entry, looked up, canonical isoform): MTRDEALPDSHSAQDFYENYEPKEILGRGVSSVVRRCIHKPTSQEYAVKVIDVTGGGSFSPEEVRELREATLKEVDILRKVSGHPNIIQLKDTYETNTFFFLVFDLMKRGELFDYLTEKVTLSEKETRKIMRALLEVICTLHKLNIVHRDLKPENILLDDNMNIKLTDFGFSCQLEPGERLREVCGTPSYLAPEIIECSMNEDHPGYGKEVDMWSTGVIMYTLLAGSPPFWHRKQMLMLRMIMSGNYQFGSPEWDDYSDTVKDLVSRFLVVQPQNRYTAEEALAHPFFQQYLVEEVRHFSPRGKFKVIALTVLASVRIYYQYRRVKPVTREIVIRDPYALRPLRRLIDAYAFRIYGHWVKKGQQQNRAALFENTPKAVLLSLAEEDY

CN(C)CC#Cc1ccc(OCCCc2sc(N3CCc4cccc(C(=O)Nc5nc6ccccc6s5)c4C3)nc2C(=O)O)c(F)c1 [A-1155463]
inactive: [1] 98% | [2] 100% | [3] 71% | [4] 100% | [5] 100% | [6] 98% | [7] 90% | [8] 100% | [9] 100% | [10] 100% | [11] 92% | [12] 97% | [13] 100% | [14] 100% | [15] 56% | [16] 99% | [17] 100% | [18] 100% | [19] 97% | [20] 89% | [21] 100% | [22] 91% | [23] 83% | [24] 98% | [25] 100% | [26] 100% | [27] 71% | [28] 86% | [29] 100% | [30] 100% | [31] 80% | [32] 79% | [33] 88% | [34] 96% | [35] 100% | [36] 98% | [37] 100% | [38] 85% | [39] 92% | [40] 89% | [41] 94% | [42] 100% | [43] 100% | [44] 100%
